{
  "source": "patent US20050240051A1",
  "about": "“Dispersing agent or solubilizing agent containing calixarene compound” (Ajinomoto Co., Inc., priority 2002, published 2005)",
  "origin": "cited, not measured here",
  "data": [
    {"smiles": "c12c3c4c5c1c1c6c7c2c2c8c3c3c9c4c4c%10c5c5c1c1c6c6c%11c7c2c2c7c8c3c3c8c9c4c4c9c%10c5c5c1c1c6c6c%11c2c2c7c3c3c8c4c4c9c5c1c1c6c2c3c41", "note": "[fullerene]", "values": [
      {"measurement": "solubility in hydrocarbon solvents and alcohol solvents", "value": "not more than 0.1 mg/ml"},
      {"measurement": "solubility in toluene", "value": "about 3 mg/ml"},
      {"measurement": "solubility in 1-methylnaphthalene", "setting": "at around normal temperature", "value": "about 33 mg/ml"}
    ]}
  ]
}
